Results as given in BindingDB's records for doi:10.1021/jm0510530 (Universit&#224, 2006).

Columns and labels:
[1] = Vasodilator activity assessed as ability to relax phenylephrine-induced contraction of Wistar rat aortic strips
[2] = Vasodilator activity assessed as ability to relax phenylephrine-induced contraction of Wistar rat aortic strips in presence of 1 uM ODQ

Work on CN(CCCc1cc(C(C)(C)C)c(O)c(C(C)(C)C)c1)Cc1no[n+]([O-])c1C(N)=O [4-((N-(3-(3,5-di-tert-butyl-4-hydroxyphenyl)propyl)-N-methylamino)methyl)furoxan-3-carboxamide] yielded an EC50 [1] of 0.41 µM and an EC50 [2] of 7.4 µM.

CC(C)(C)c1cc(CCCO[N+](=O)[O-])cc(C(C)(C)C)c1O [2,6-Di-tert-butyl-4-(3-nitrooxy-propyl)-phenol] gave an EC50 [1] of 40 µM.

In the case of O=S(=O)(c1ccccc1)c1c(OCCCc2ccc(O)cc2)no[n+]1[O-] [4-(3-(3-benzenesulfonylfuroxan-4-yloxy)propyl)phenol], the EC50 [1] is reported as 0.012 µM and the EC50 [2] is reported as 0.36 µM.

Compound COc1cc(CCCOc2no[n+]([O-])c2S(=O)(=O)c2ccccc2)cc(OC)c1O [4-(3-(3-benzenesulfonylfuroxan-4-yloxy)propyl)-2,6-dimethoxyphenol] has an EC50 [1] of 0.022 µM and an EC50 [2] of 0.5 µM.

In the case of O=[N+]([O-])OCCCc1ccc(O)cc1 [4-(3-Nitrooxy-propyl)-phenol], the EC50 [1] is reported as 1 µM.

CN(C)Cc1no[n+]([O-])c1C(N)=O [4-dimethylaminomethyl-2-oxy-furazan-3-carboxylic acid amide] gave an EC50 [1] of 3.1 µM.

Work on Cc1c(C)c2c(c(C)c1O)CCC(C)(CN(C)Cc1no[n+]([O-])c1C(N)=O)O2 (centres undefined) [4-((N-((6-hydroxy-2,5,7,8-tetramethylchroman-2-yl)methyl)-N-methylamino)methyl)furoxan-3-carboxamide] yielded an EC50 [1] of 1.5 µM and an EC50 [2] of 19 µM.

With Cc1c(C)c2c(c(C)c1O)CCC(C)(COc1no[n+]([O-])c1S(=O)(=O)c1ccccc1)O2 (centres undefined) [2-(4-Benzenesulfonyl-5-oxy-furazan-3-yloxymethyl)-2,5,7,8-tetramethyl-chroman-6-ol] the EC50 [1] was 0.044 µM and the EC50 [2] was 0.67 µM.

In the case of CC(C)(C)c1cc(CCCOc2no[n+]([O-])c2S(=O)(=O)c2ccccc2)cc(C(C)(C)C)c1O [4-(3-(3-benzenesulfonylfuroxan-4-yloxy)propyl)-2,6-di-tertbutylphenol], the EC50 [1] is reported as 0.11 µM and the EC50 [2] is reported as 4.8 µM.

Compound COc1cc(CCCO[N+](=O)[O-])cc(OC)c1O [3-(4-hydroxy-3,5-dimethoxyphenyl)propyl nitrate] has an EC50 [1] of 4.3 µM.

Cc1c(C)c2c(c(C)c1O)CCC(C)(COCCCO[N+](=O)[O-])O2 (centres undefined) [2,5,7,8-Tetramethyl-2-(3-nitrooxy-propoxymethyl)-chroman-6-ol] showed an EC50 [1] of 1.2 µM and an EC50 [2] of 10 µM.

Compound NC(=O)c1c(CO)no[n+]1[O-] [4-hydroxymethyl-2-oxy-furazan-3-carboxylic acid amide] has an EC50 [1] of 6.3 µM.
